The values below come from publication PMC10983001, “Development of Cytotoxic GW7604-Zeise’s Salt Conjugates as Multitarget Compounds with Selectivity for Estrogen Receptor- Positive Tumor Cells” (Journal of Medicinal Chemistry, 2024).

The test system of data set [1] is MCF-7 cells. The data set is described as follows: MTT assay of metabolic activity, MCF-7. Type of data set: cell-based, human. The conditions noted are these: 72 h, MTT; read-out: IC50 MCF-7. The method, then: The GW7604-Alk-PtCl3 complexes (with exclusion of GW7604-Prop-PtCl3) were investigated for cytotoxic effects in SKBr3 (ER-negative, COX-2-positive, Figure 6), MCF-7 (ERα-positive, COX-negative, Figure 6), and noncancerous TSA-201 (human embryonal kidney) cells at concentrations of 10–30 μM using an established MTT (3-(4,5-dimethylthiazol-2-yl)-2,5-diphenyltetrazolium bromide) assay.[60],[69]
After incubation for 72 h, the amounts of surviving, metabolically active cells were quantified based on their ability to transform the water-soluble yellow dye MTT to a purple formazan, which can be analyzed by UV–vis spectroscopy.
The exponentially growing cells were seeded at a density of 1750 (MCF-7), 2000 (SKBr3), and 1250 (TSA-201) cells/well into clear flat-bottom 96-well plates in triplicate. Following 24 h of incubation at 37 °C in a humidified atmosphere (5% CO2/95% air), the compounds [freshly prepared stock solutions in DMF, diluted with DMEM to the desired concentration (final DMF concentration of 0.1% (v/v))] were added to reach the indicated concentrations. After another 72 h of incubation, the cellular metabolic activity was measured employing an MTT assay. By adding predissolved MTT reagent in PBS at a final concentration of 0.5 mg/mL, the metabolic activity can be determined via an enzymatic conversion to a purple formazan salt. After 3 h, the medium was aspirated, and 200 μL of DMSO was added to dissolve the formed formazan crystals. The absorbance was measured at 570 and 690 nm (turbidity assessment) using an EnSpire plate reader (PerkinElmer, Waltham, MA, USA). Solvent-treated cells without a compound served as the positive control. Metabolic activity was calculated by the following equation [drawing 1]

Data set [2] has as its system MCF-7 cells. The data set is described as follows: Cellular uptake (platinum by HR-CS-AAS), MCF-7. The data set is classed as cell-based, human. Particulars: MCF-7, 20 μM. The method, then:
In order to reach the DNA, the complexes must first pass through the cell membrane and penetrate into the nuclei. Therefore, the cellular uptake kinetics of GW7604-Alk-PtCl3 complexes were studied using the example of GW7604-Pent-PtCl3. This complex and Cisplatin, respectively, were incubated at a concentration of 20 μM with MCF-7 or SKBr3 cells. After various time points [i.e., 0 (3 min), 0.5, 1, 2, 4, and 8 h], cell pellets were prepared, and the platinum content was quantified by high-resolution continuum source atomic absorption spectrometry (HR-CS-AAS).[52]
After thawing of the cell/nuclei pellets, they were resuspended in ultrapure water (Siemens LaboStar, Günzburg, Germany; 300 μL) and lyzed with a sonotrode (Bandelin Sonoplus, Berlin, Germany; parameters 20 s, 9 cycles, 80% power). Graphite furnace (GF) AAS was used to quantify the lysates concerning their content of platinum (λ = 265.9450 nm). For this purpose, a contrAA 700 High-Resolution-Continous Source AAS (Analytik Jena, Jena, Germany) was employed, while atomization took place by electrothermal heating of graphite tubes with an inserted platform (Analytik Jena, Jena, Germany). A time–temperature program reported in the literature[25] was followed with minor adjustments. The liquid samples kept in 0.5 mL polystyrene vials (Gesellschaft für Analysentechnik, Salzwedel, Germany) were injected directly into the pyrolytically coated tubes using an MPE 60 autosampler (Analytik Jena, Jena, Germany). Throughout the measurements, argon (Alphagaz 1, 99.999%, Air Liquide, Düsseldorf, Germany) served as the purge and protective gas. The spectrometer was monitored with the ASpect CS software, version 2.3.1.0 (Analytik Jena, Jena, Germany). For all runs, the mean integrated absorbance was determined after three injections of each standard or sample. Calibration was performed by an appropriate dilution of a solution of Cisplatin (Sigma-Aldrich, Taufkirchen, Germany) obtaining five standards (2–10 μg/L, R^2 ≥ 0.982). Each cell/nuclei lysate was quantified concerning its protein content following the method of Bradford[71] in order to express the uptake as the amount of compound (pmol) in the lysate relative to its protein mass (mg). Therefore, solutions of Albumin fraction V (Carl Roth, Karlsruhe, Germany) diluted with ultrapure water were adduced for the calibration (six standards, 50–300 μg/mL, R^2 ≥ 0.996). A volume of 20 μL of the Albumin standards or the lysates was added to a 96-well plate (Sarstedt, Nürmbrecht, Germany) and supplemented with 200 μL of Bradford’s reagent (Roti-Nanoquant, Carl Roth, Karlsruhe, Germany; diluted 5-fold with ultrapure water). All standards and lysates were measured in duplicate. After incubating for 5 min at rt, the absorbance (λ = 595 nm) was read on a microplate reader (Tecan Safire 2, Männedorf, Switzerland). The cellular/nuclear uptake (pmol complex/mg protein) is given as the mean ± SD of 2 independent experiments.
For cellular uptake studies, 1.0 × 10^6 of MCF-7 and SKBr3 cells in their exponential growing phase were seeded into 25 cm^2 cell culture flasks and incubated for 24 h under a humidified atmosphere (5% CO2/95% air) at 37 °C. Stock solutions of the platinum complexes (GW7604-Pent-PtCl3, Cisplatin) in DMF were freshly prepared and diluted with complete DMEM containing 10% FCS to the desired concentration [final DMF concentration of 0.1% (v/v), final complex concentration of 20 μM]. The medium in the cell culture flasks was replaced with 3 mL of fresh cell culture medium containing the compounds, and the flasks were incubated under a humidified atmosphere at 37 °C for 3 min, 0.5, 1, 2, 4, and 8 h. Cell pellets were prepared by removing the medium, washing two times with phosphate-buffered saline (PBS), and detaching the cells with Accutase (GE Healthcare, BioSciences, Chicago, IL, USA). Subsequently, cells were pelleted by centrifugation (4 °C, 380g, 3 min). […]

The subject of another data set is plasmid pSport1. In words: DNA interference assay (gel electrophoresis). Particulars: 20 μM, 4 h, 37 °C. The data set is classed as binding. The method, then:
Therefore, the general possibility of DNA interaction was examined by incubating the complex with the empty plasmid pSport1 at a concentration of 20 μM for 4 h at 37 °C. The gel electrophoretic separation[60] […] The ladder structure differs from both the untreated sample (Figure 9A) and the solvent control (Figure 9B) and is similar to that of Cisplatin (Figure 9C).
Two μL (conc. 0.5 μg/μL) of an empty pSport1 (4109 base pairs) plasmid was mixed with 2 μL of each test compound (200 μM in DMF) and diluted with 16 μL of nuclease-free water to reach a final concentration of 20 μM for GW7604-Pent-PtCl3 and […] for Cisplatin. Afterward, this mixture was incubated for 4 h at 37 °C under gentle shaking. Samples were loaded with gel loading buffer on agarose gel [0.5% (w/v) in 1 × TRIS-acetate-EDTA (TAE) buffer + 0.004% Midori Green Advance]. The following running parameters were used: 95 min at 3 V/cm in 1 × TAE buffer. Images were visualized under UV light (254 nm).

SMILES strings stand for the structures.

By IC50 is commonly meant the concentration needed to halve the response being measured. For `CCC(=C(c1ccc(O)cc1)c1ccc(C=CC(=O)OCCC[CH]2[CH2][Pt-]2([Cl])([Cl])[Cl])cc1)c1ccccc1.[K+]` (mixture of isomers) [GW7604-Pent-PtCl3, Potassium trichlorido[η^2-(pent-4-en-1-yl (E)-3-(4-((E/Z)-1-(4-hydroxyphenyl)-2-phenylbut-1-en-1-yl)phenyl)acrylate)]platinate(II)], in the data set with MCF-7 cells [1], the IC50 came out at 19.6 µM. The intracellular platinum amount in the data set with MCF-7 cells [2] (0.5 h) amounted to 130 pmol/mg; with MCF-7 cells [2] (1 h) it was 265 pmol/mg; with MCF-7 cells [2] (2 h), 371 pmol/mg; with MCF-7 cells [2] (4 h), 659 pmol/mg; in the data set with MCF-7 cells [2] (8 h), 818 pmol/mg. For the same molecule, the “interaction with plasmid DNA” value in the data set with plasmid pSport1 was “binds to DNA”.
